Measurements from patent US20250282895A1, “PHARMACEUTICAL COMPOSITIONS OF CHEMOTHERAPEUTIC AGENTS BASED ON BETA-S[…]-AMINO ACID DERIVATIVES” (priority 2021, published 2025).
Structures can show the parent of a compound that is named as a salt.

Test: Comparative stability, Formulation 4 (based on Treanda, mannitol)
Type: physicochemical
Procedure: The stability of Compound (1c) either as the HCl salt or as the free base was compared to the stability of melphalan HCl and/or bendamustine HCl in various pharmaceutical formulations and at different concentrations and at temperatures of 0° C. or 25° C.
The stability of the compounds in the pharmaceutical formulations was determined at concentrations within the range from 0.4 mg/mL to 0.5 mg/mL, from 0.9 mg/mL to 1.1 mg/mL, and from 1.8 mg/mL to 2.1 mg/mL.
The amount of the active pharmaceutical ingredient (API) (Compound (1c), melphalan or bendamustine) in the pharmaceutical formulations at different times during storage was determined using HPLC/UV as described in detail for Example 4 and Example 5.
Treanda® is an injectable formulation of bendamustine hydrochloride, 1H-benzimidazole-2-butanoic acid, 5-[bis(2-chloroethyl)amino]-1-methyl-, 4-(5-(bis(2-chloroethyl)amino)-1-methyl-1H-benzo[d]imidazol-2-yl) butanoic acid monohydrochloride approved by the FDA. Treanda® for injection is provided in a vial containing either 25 or 100 mg of bendamustine HCl as a white to off-white lyophilized powder. Each vial contains either 25 mg or 100 mg of bendamustine hydrochloride and 42.5 mg or 170 mg of mannitol, USP, which is reconstituted in either 0.9% sodium chloride injection, USP, or 2.5% dextrose/0.45% sodium chloride solution injection, USP to a final concentration of 0.2 mg/mL-0.6 mg/mL and adjusted to a pH from 2.5 to 3.5.
A series of 12 mL glass vials each containing 12.5 mg (0.0317 mmol) of bendamustine mono-hydrochloride salt (C16H21C12N3O2·HCl, 394.72 g/mol; MedKoo, 200470) (corresponding to 11.3 mg of bendamustine as the free base) were prepared through weighing out the commercial compound into the vials. To each of the vials either containing bendamustine mono-hydrochloride salt was added 21.3 mg (0.117 mmol) of D-mannitol (C6H14O6, MW 182.17 g/mol; SigmaAldrich, M1902). The mixtures were dissolved in 2.0 mL of double distilled water (dd-H2O) (Arrowhead), the clear colorless solutions were frozen at −78° C. (dry ice/acetone bath), and the solvents were lyophilized off at about 100 mTorr within about 16 h to afford colorless solids.
A stock solution was prepared by dissolving 85.0 mg (0.255 mmol) of Compound (1c) (free base) and 170.4 mg of D-mannitol (0.935 mmol) (C6H14O6, MW 182.17 g/mol; SigmaAldrich, M1902), and 0.503 mL of 0.5072 M aq. HCl (0.255 mmol, 1.0 eq.) (Fluka, 318957) in about 16.0 mL of a mixture of acetonitrile/water (1:1, v/v) with vortexing in clean graduated glass cylinder (25 mL) to afford a stock solution of Compound (1c) as a mono-HCl salt of a concentration of 5.313 mg/mL and a D-mannitol concentration of 10.65 mg/mL. This solution was filtered through a 0.22 μm PTFE syringe filter into a clean 25 mL Erlenmeyer flask. Aliquots of 2.0 mL (2× 1.0 mL; 2× 5.313 mg) of this stock solution were rapidly pipetted into clean 12 mL scintillation vials. The aliquots were frozen at −78° C. (dry ice/acetone bath) and lyophilized at about 100 mTorr for about 16 hours to provide test vials each containing 11.8 mg (0.0319 mmol) of Compound (1c) mono-hydrochloride salt (mono-HCl salt) (corresponding to 10.6 mg of Compound (1c) as a free base) and 21.3 mg (0.117 mmol) of D-mannitol as a colorless powdery solid.
The materials in the vials were dissolved 2.5 mL of double-distilled water (dd-H2O) (Arrowhead) to provide clear colorless, non-viscous stock solutions of a concentration of 4.24 mg/mL of Compound (1c) as the monohydrochloride salt or 4.54 mg/mL of bendamustine as the mono-hydrochloride salt, respectively.
1.0 mL of the stock solution containing 4.24 mg/mL of Compound (1c) as the monohydrochloride salt was diluted with 9.0 mL of 0.9% saline to afford 10.0 mL of a test solution of a concentration of 0.424 mg/mL of Compound (1c) as the monohydrochloride salt and with a pH of about 4. […]

## Cc1ccc(N(CCCl)CCCl)cc1C[C@H](N)CC(=O)O [Compound (1c)•HCl, (S)-3-amino-4-(5-(bis(2-chloroethyl)amino)-2-methylphenyl) butanoic acid mono hydrochloride salt]
Formulation 4, 0° C., 0.5 hours, 0.4-0.5 mg/mL, pH 4-5 (bendamustine), pH 4 (Compound (1c)•HCl)
  % API: 92%
Formulation 4, 0° C., 0.5 hours, 0.9-1.1 mg/mL, pH 4
  % API: 92%
Formulation 4, 0° C., 0.5 hours, 1.8-2.1 mg/mL, pH 4
  % API: 93%
Formulation 4, 0° C., 2.0 hours, 0.4-0.5 mg/mL, pH 4-5 (bendamustine), pH 4 (Compound (1c)•HCl)
  % API: 78%
Formulation 4, 0° C., 2.0 hours, 0.9-1.1 mg/mL, pH 4
  % API: 73%
Formulation 4, 0° C., 2.0 hours, 1.8-2.1 mg/mL, pH 4
  % API: 80%
Formulation 4, 25° C., 0.5 hours, 0.4-0.5 mg/mL, pH 4-5 (bendamustine), pH 4 (Compound (1c)•HCl)
  % API: 95%
Formulation 4, 25° C., 0.5 hours, 0.9-1.1 mg/mL, pH 4-5 (bendamustine), pH 4 (Compound (1c)•HCl)
  % API: 95%
Formulation 4, 25° C., 0.5 hours, 1.8-2.1 mg/mL, pH 4-5 (bendamustine), pH 4 (Compound (1c)•HCl)
  % API: 92%
Formulation 4, 25° C., 2.0 hours, 0.4-0.5 mg/mL, pH 4-5 (bendamustine), pH 4 (Compound (1c)•HCl)
  % API: 81%
Formulation 4, 25° C., 2.0 hours, 0.9-1.1 mg/mL, pH 4-5 (bendamustine), pH 4 (Compound (1c)•HCl)
  % API: 81%
Formulation 4, 25° C., 2.0 hours, 1.8-2.1 mg/mL, pH 4-5 (bendamustine), pH 4 (Compound (1c)•HCl)
  % API: 75%
